This note sets out measurements from ChEMBL document CHEMBL3763102, “4-Aryl-3-arylsulfonyl-quinolines as negative allosteric modulators of metabotropic GluR5 receptors: From HTS hit to development candidate” (Bioorg Med Chem Lett, 2016).

Broadly, the Ki is a dissociation constant, usually derived from enzyme kinetics or from competition with a known ligand. A word on the IC50: it is the concentration at which inhibition is half-maximal. High values mean a need for much substance, low ones inhibition by little substance.

Data set [1] concerns the target T1, Metabotropic glutamate receptor 5 (Rattus norvegicus, UniProt P31424). The data set can be described thus: Displacement of [3H]MPEP from rat mGlu5 receptor expressed in rat cerebrocortical membrane measured after 1 hr. In kind it is cell membranes. (In general: Displacement assays read how much labelled ligand stays bound in the presence of the test substance.)

Data set [2] deals with Liver microsome. Kind of data set: Intrinsic clearance in human liver microsomes at 2.5 uM. In kind it is ADME.
The test system of data set [3] is Liver microsome. The data set can be described thus: Intrinsic clearance in Wistar rat liver microsomes at 2.5 uM. Format: ADME. On the technique in general: Liver microsomes are vesicles of endoplasmic reticulum, rich in cytochrome P450 enzymes.
Data set [4] deals with T2, Metabotropic glutamate receptor 5 (Homo sapiens, UniProt P41594). Kind of data set: Displacement of [3H]MPEP from recombinant human mGluR5a expressed in A18 cells measured after 1 hr. Format: cell-based.
T2 sequence (P41594 whole entry): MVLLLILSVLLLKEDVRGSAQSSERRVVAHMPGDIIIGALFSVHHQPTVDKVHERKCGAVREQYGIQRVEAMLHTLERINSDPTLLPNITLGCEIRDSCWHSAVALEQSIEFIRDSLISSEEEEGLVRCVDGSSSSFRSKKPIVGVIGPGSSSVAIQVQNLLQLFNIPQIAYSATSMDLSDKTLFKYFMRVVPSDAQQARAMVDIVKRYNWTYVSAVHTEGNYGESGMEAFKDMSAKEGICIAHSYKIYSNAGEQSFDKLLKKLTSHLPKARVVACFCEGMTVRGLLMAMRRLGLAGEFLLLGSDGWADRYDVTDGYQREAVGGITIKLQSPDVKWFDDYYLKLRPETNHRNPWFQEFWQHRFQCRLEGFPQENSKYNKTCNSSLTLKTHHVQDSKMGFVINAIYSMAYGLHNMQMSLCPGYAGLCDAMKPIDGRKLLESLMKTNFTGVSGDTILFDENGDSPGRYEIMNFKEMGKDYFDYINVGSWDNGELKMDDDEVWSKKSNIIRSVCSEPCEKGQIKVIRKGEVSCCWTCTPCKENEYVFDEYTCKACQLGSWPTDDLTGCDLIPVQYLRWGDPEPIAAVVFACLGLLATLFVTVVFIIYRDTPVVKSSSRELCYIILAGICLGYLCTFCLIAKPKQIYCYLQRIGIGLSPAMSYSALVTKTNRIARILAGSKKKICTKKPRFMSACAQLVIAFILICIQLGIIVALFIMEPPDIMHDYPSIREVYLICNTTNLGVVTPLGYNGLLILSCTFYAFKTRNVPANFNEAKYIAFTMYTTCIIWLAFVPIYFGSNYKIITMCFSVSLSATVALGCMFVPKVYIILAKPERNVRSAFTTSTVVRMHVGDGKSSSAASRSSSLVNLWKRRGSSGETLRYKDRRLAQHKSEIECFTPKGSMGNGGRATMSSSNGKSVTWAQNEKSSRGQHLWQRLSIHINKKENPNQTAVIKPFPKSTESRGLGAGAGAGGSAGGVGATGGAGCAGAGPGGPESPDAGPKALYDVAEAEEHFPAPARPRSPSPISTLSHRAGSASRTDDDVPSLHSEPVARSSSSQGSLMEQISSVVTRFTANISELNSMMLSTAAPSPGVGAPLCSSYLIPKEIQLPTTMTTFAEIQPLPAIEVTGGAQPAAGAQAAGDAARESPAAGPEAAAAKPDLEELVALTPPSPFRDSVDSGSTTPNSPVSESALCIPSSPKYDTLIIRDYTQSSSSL
Data set [5] concerns Rattus norvegicus. Kind of data set: Anxiolytic activity in water deprived rat assessed as increase in number of accepted shocks at 10 mg/kg, po after 1 hr by Vogel punished drinking test. In kind it is functional, organism-based.
Data set [6] deals with T2, Metabotropic glutamate receptor 5. The data set can be described thus: Displacement of [3H]-MPEP from human mGlu5 receptor expressed in HEK293 cell membranes after 1 hr by scintillation counting analysis.
Data set [7] concerns the target T1, Metabotropic glutamate receptor 5. Kind of data set: Displacement of [3H]-MPEP from rat mGlu5 receptor expressed in HEK293 cell membranes after 1 hr by scintillation counting analysis.
For data set [8], the system named is Homo sapiens. The data set can be described thus: Toxicity in human assessed as suicidal ideation and behavior administered as bid for 10 to 14 days by multiple ascending dose study. To be noted: in vivo. Format: organism-based.
The subject of data set [9] is Rattus norvegicus. The data set can be described thus: Anxiolytic activity in water deprived rat assessed as increase in number of accepted shocks at 1 mg/kg, po after 1 hr by Vogel punished drinking test. In kind it is functional, organism-based.
For data set [10], the system named is Homo sapiens. The data set can be described thus: Toxicity in human assessed as suicidal ideation and behavior administered as qd for 10 to 14 days by multiple ascending dose study. In kind it is organism-based. The note with it: in vivo.
For data set [11], the species on record is Homo sapiens. The data set can be described thus: Toxicity in human at 1 to 120 mg by single ascending dose study. Format: organism-based. To be noted: in vivo.
The subject of data set [12] is Homo sapiens. The data set can be described thus: Toxicity in human assessed as change in ECG administered as bid for 10 to 14 days by multiple ascending dose study. In kind it is organism-based. The note with it: in vivo.
In data set [13] the test system is Homo sapiens. The data set can be described thus: Toxicity in human assessed as change in ECG administered as qd for 10 to 14 days by multiple ascending dose study. Format: organism-based. The note with it: in vivo.

Calls of active or inactive are those of the source. The calls are words filed in the database; no cut-off is given here.

T1 sequence (P31424 whole entry): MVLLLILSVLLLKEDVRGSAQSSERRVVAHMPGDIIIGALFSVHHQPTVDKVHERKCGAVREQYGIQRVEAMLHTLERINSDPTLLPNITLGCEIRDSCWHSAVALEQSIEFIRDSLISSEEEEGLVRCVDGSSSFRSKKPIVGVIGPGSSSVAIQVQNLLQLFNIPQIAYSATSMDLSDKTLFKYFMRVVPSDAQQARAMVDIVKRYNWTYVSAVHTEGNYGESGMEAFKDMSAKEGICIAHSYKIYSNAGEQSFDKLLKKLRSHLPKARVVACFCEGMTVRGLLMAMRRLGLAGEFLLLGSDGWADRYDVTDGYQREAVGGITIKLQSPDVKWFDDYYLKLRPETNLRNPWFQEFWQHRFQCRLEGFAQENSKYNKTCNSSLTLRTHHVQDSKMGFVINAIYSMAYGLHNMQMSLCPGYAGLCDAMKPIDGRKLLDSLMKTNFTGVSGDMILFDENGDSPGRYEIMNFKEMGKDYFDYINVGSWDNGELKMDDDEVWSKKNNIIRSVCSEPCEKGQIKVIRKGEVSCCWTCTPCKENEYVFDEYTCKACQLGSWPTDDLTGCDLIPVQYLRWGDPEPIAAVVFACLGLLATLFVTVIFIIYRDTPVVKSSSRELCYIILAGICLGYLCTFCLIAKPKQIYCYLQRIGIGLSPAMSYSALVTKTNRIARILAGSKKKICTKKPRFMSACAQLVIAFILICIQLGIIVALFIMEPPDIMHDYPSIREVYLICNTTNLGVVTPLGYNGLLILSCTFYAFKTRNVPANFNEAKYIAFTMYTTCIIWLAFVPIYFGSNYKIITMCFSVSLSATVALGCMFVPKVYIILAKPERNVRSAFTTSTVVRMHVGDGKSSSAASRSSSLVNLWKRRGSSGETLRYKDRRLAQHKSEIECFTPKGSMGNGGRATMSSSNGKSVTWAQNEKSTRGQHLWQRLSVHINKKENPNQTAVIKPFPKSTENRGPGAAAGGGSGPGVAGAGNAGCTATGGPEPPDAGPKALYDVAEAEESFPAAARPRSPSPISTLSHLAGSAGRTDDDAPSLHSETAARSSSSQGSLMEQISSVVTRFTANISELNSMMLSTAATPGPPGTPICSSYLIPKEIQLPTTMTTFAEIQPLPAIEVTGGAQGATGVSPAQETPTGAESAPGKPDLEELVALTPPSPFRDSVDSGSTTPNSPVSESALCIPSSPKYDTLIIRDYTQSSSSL

Take `O=S(=O)(c1cc(Cl)cc(Cl)c1)c1cnc2cc(F)ccc2c1-c1ccc(F)cc1`: in data set [1], the Ki was 11.5 nM. Moreover, the values for the CLH in data set [2] and in data set [3] were 0.2 mL/min/g and 1.03 mL/min/g, respectively.

As for `Cc1ccc(S(=O)(=O)c2cnc3ccccc3c2-c2ccc(Cl)cc2)cc1`, the results for the Ki in data set [1] and in data set [4] were 9.5 nM and 17 nM, respectively. Also, the CLH in [2] came out at 2.12 mL/min/g; in [3], 17.5 mL/min/g.

Regarding `Cc1nc(C#Cc2cccnc2)cs1`, the result in data set [5] was Active.

In data set [1], `O=S(=O)(c1ccc(Cl)c(F)c1)c1cnc2cc(F)ccc2c1-c1ccc(F)cc1` yielded an inhibition constant Ki of 5.2 nM. Further, the CLH in data set [2] amounted to 0.5 mL/min/g; in [3] it was 0.88 mL/min/g.

On to `Cc1ccc(S(=O)(=O)c2cnc3ccccc3c2N2CCOCC2)cc1C`, for which the Ki stood at 68 nM in [1] and 52 nM in [4]. For the same compound, the CLH was found to be 3.37 mL/min/g in [2] and 18 mL/min/g in data set [3].

For `O=S(=O)(c1ccc(F)c(F)c1)c1cnc2c(F)cccc2c1-c1ccc(Cl)cc1`, the affinity in [1], expressed as Ki, was 8.4 nM. The CLH in data set [2] came to 0.28 mL/min/g; in [3], 0.19 mL/min/g.

As to `CN1CC(=O)N=C1NC(=O)Nc1cccc(Cl)c1` [FENOBAM ANHYDROUS], the IC50 in [6] and in data set [7] was 51 nM throughout.

In [1], `Cc1ccc(S(=O)(=O)c2sc3ncccc3c2-c2ccc(Cl)cc2)cc1` had a Ki of 15 nM. In addition, the CLH in [2] was found to be 2.31 mL/min/g; in data set [3], 13.8 mL/min/g.

For the compound `Cc1ccc(S(=O)(=O)c2cnc3ccccc3c2N2CCC(C)CC2)cc1`, the affinity in data set [1] corresponds to a Ki of 22 nM. Moreover, the CLH in data set [2] was 3.54 mL/min/g; in data set [3], 17.4 mL/min/g.

For the compound `N#Cc1cccc(S(=O)(=O)c2cnc3cc(F)ccc3c2-c2ccc(Cl)cc2)c1`, the Activity result in data set [8], in [10], in [11], in data set [12] and in data set [13] was “Non-toxic” throughout. In addition, in [9], the result was Active. The Ki in [1] was determined as 5.3 nM. For the same compound, the CLH in data set [2] was 0.31 mL/min/g; in [3], 0.25 mL/min/g.
